Source: patent US20120122843A1, “Compounds and Their Use for Treatment of Amyloid Beta-Related Diseases” (ASTRAZENECA AB, priority 2010, published 2012)

Columns and labels:
Aβ42 = Aβ42 release from HEK cells stably expressing APPswe (MSD electrochemiluminescence); format: cell-based, Human; details: 4-6 h incubation with test compound, Aβ42 secreted to cell medium
How it was run: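 HEK cells stably expressing APPswe, plated 15–24 h, then given compound in fresh medium (diluted ×200 from compound plate) for 4–6 h at 37 °C. Secreted Aβ in medium measured by MSD electrochemiluminescence; total Aβ via 6E10 plus 4G8 antibodies, Aβ42 via specific antibody. Cytotoxicity checked by ATP content of lysate.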

Notch = assay: Release and translocation of Notch intracellular domain into the nucleus, HEK/AENotch cells (NICD immunostaining, ImageXpress); format: cell-based, Human; details: 3 μM Lactacystin, 4-6 h incubation, nucleus/cytosol NICD fluorescence ratio
How it was run: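 HEK cells overexpressing a Notch1-ΔE-myc construct were plated for 15–24 h, then treated 4–6 h with compound (typically up to 25 μM, 0.5% DMSO) plus 3 μM Lactacystin. Fixed cells were immunostained for NICD, and the nuclear/cytosolic fluorescence ratio was imaged. Cytotoxicity was judged by nucleus area or cell number.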

Aβtotal = assay: Total Aβ release from HEK cells stably expressing APPswe (MSD, 6E10 and 4G8 antibodies); format: cell-based; details: Homo sapiens, HEK293, 4-6 h incubation with test compound, total Aβ secreted to cell medium
Description: The level of activity of the compounds on Aβ formation was tested using the following method:
Compounds were diluted in 100% DMSO and stored at […] prior to use. Human Embryonic Kidney (HEK) cell line stably expressing APP with the Swedish mutation (APPswe) were cultured using Dulbecco's Modified Eagles medium (DMEM) supplied with […] glucose, Na-pyruvate and GlutaMAX with 10% FBS, 100 U/ml penicillin-streptomycin (PEST) respectively, 1× non-essential amino acids (NEAA), […] Hepes, 100 μg/ml Zeocine. Cells at about 80% confluence were washed with PBS, detached from culture flasks using 1× Trypsin/EDTA diluted in PBS, re-suspended in cell media and plated in 384-well poly-d-lysine coated cell culture plates at about 10000-15000 cells/well, in 25 μL cell media. Optionally, cryo-preserved cells (frozen and stored at −140° C. in 90% cell media and 10% DMSO) were thawed, washed and plated as above. Next the cells were incubated for 15-24 h at 37° C. and 5% CO2, after which cell medium was changed. Fresh medium containing test compound diluted ×200 from prepared compound plate was added to the cells before further incubation for 4-6 hours at 37° C. and 5% CO2. After incubation with test compound the amount of Aβ peptides, including Aβ42, Aβ40, Aβ39, Aβ38 and Aβ37, as well as total Aβ levels, secreted to cell medium was analyzed using the electrochemiluminescence assay technology from Meso Scale Discovery (MSD), in combination with specific antibodies raised against the different Aβ peptides. Aβ42, Aβ40 and Aβ38 antibodies were purchased from MSD and Aβ37 and Aβ39 were made in house. Total Aβ was measured using a combination of 6E10 and 4G8 anti Aβ antibodies from MSD. Potential cytotoxic effects of the compounds were usually assayed by measuring the ATP content (ViaLight) from cell lysate.

[1] = Homo sapiens, HEK293, HEK cells expressing APPswe

Row | IC50 (Aβ42; [1]) [µM] | IC50 (Aβtotal) [µM] | IC50 (Aβ42; HEK cells expressing APPswe) [µM] | Structure (SMILES) | IC50 (Notch; Homo sapiens) [µM] | IC50 (Notch) [µM]
1 | 0.022 | 9.47 | – | COc1nc(Nc2ccc3c(n2)OC(CC(CF)CF)CN(C)C3)ccc1-c1cnn(C)c1 (stereo not drawn) [Example 31, [8-(3-Fluoro-2-fluoromethyl-propyl)-6-methyl-5,6,7,8-tetrahydro-9-oxa-1,6-diaza-benzocyclohepten-2-yl]-[6-methoxy-5-(1-methyl-1H-pyrazol-4-yl)-pyridin-2-yl]-amine] | > 7.9 | –
2 | 0.003 | > 1 | – | COc1nc(Nc2ccc3c(n2)OC(CCC(F)(F)F)CN(C)C3)ccc1-n1cnc(C)c1 (single isomer, unassigned; (+)) [Example 61, (+)-[6-Methoxy-5-(4-methyl-imidazol-1-yl)-pyridin-2-yl]-[6-methyl-8-(3,3,3-trifluoro-propyl)-5,6,7,8-tetrahydro-9-oxa-1,6-diaza-benzocyclohepten-2-yl]-amine] | > 25 | –
3 | 0.007 | > 1 | – | COc1nc(Nc2ccc3c(n2)OC(CCC(F)(F)F)CN(C)C3)ccc1-n1cnc(C)c1 (stereo not drawn) [Example 28, [6-Methoxy-5-(4-methyl-imidazol-1-yl)-pyridin-2-yl]-[6-methyl-8-(3,3,3-trifluoro-propyl)-5,6,7,8-tetrahydro-9-oxa-1,6-diaza-benzocyclohepten-2-yl]-amine] | > 25 | –
4 | 0.008 | > 5 | – | COc1nc(Nc2ccc3c(n2)OC(CC(F)(F)F)CN(C)C3C)ccc1-c1cnn(C)c1 (single isomer, unassigned) [Example 33, N-(6-Methoxy-5-(1-methyl-1H-pyrazol-4-yl)pyridin-2-yl)-4,5-dimethyl-2-(2,2,2-trifluoroethyl)-2,3,4,5-tetrahydropyrido[3,2-f][1,4]oxazepin-8-amine] | > 25 | –
5 | – | > 1 | 0.004 | COc1nc(Nc2ccc3c(n2)OC(C2CC(F)(F)C2)CN(C)C3)ccc1-c1cnn(C)c1 (single isomer, unassigned) [Example 37, 2-(3,3-Difluorocyclobutyl)-N-(6-methoxy-5-(1-methyl-1H-pyrazol-4-yl)pyridin-2-yl)-4-methyl-2,3,4,5-tetrahydropyrido[3,2-f][1,4]oxazepin-8-amine] | > 25 | –
6 | – | 0.512 | 0.009 | COc1nc(Nc2ccc3c(n2)OC(CC(F)(F)F)CN(C)C3)ccc1-c1cnn(C)c1 (single isomer, unassigned; (+)) [Example 4, (+)-N-(6-Methoxy-5-(1-methyl-1H-pyrazol-4-yl)pyridin-2-yl)-4-methyl-2-(2,2,2-trifluoroethyl)-2,3,4,5-tetrahydropyrido[3,2-f][1,4]oxazepin-8-amine] | > 25 | –
7 | 0.01 | > 25 | – | COc1nc(Nc2ccc3c(n2)OC(CC(CF)CF)CN(C)C3)ccc1-n1cnc(C)c1 (single isomer, unassigned; (+)) [Example 67, (+)-[8-(3-Fluoro-2-fluoromethyl-propyl)-6-methyl-5,6,7,8-tetrahydro-9-oxa-1,6-diaza-benzocyclohepten-2-yl]-[6-methoxy-5-(4-methyl-imidazol-1-yl)-pyridin-2-yl]-amine] | – | 6.23
8 | 0.002 | 5.46 | – | COc1nc(Nc2ccc3c(n2)O[C@H](c2ccccc2)CN(C)C3)ccc1-c1cnc(C)o1 [Example 49, (2R)—N-[6-Methoxy-5-(2-methyloxazol-5-yl)-2-pyridyl]-4-methyl-2-phenyl-3,5-dihydro-2H-pyrido[3,2-f][1,4]oxazepin-8-amine] | 2.17 | –
